# Laboratory results: PubChem BioAssay AID1963840 (Molecular Pharmacology Branch, DTP, NCI, 2024)
# Tested on: 695427-040-R-J1-PDC complex spheroid viability
# Assay: Anticancer human tumor 695427-040-R-J1-PDC patient-derived colon adenocarcinoma cell line growth inhibition [POLQ]
# Conditions: for IC50: curve of first compound; for viability, T/C: stronger effect = lower value
# Summary of the method: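 PDC + HUVEC + MSC complex spheroids; POLQ inhibitors ± partner drugs; top conc. at/near clinical Cmax, else 10 microM (SN-38 1 microM), half-log dilutions; 37 degrees C, 5% CO2.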
# [1] = second compound 0.0316 µM, first compound 0.0316 µM
# [2] = second compound 0.0316 µM, first compound 0.1 µM
# [3] = second compound 0.1 µM, first compound 0.0316 µM
# [4] = second compound 0.1 µM, first compound 0.1 µM
# [5] = second compound 0.316 µM, first compound 0.0316 µM
# [6] = second compound 0.316 µM, first compound 0.1 µM
# [7] = second compound 1 µM, first compound 0.0316 µM
# [8] = second compound 1 µM, first compound 0.1 µM
# [9] = second compound 3.16 µM, first compound 0.0316 µM
# [10] = second compound 3.16 µM, first compound 0.1 µM
# [11] = second compound 10 µM, first compound 0.0316 µM
# [12] = second compound 10 µM, first compound 0.1 µM
# 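Note: spheroids exposed to compounds for seven days.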
# 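Throughout, for viability, T/C: 100% = DMSO vehicle control viability.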
smiles,measurement,setting,value
CC[C@@]1(O)C(=O)OCc2c1cc1n(c2=O)Cc2cc3c(CN(C)C)c(O)ccc3nc2-1 + Cc1cccc(N(C)C(=O)C2C(O)CCN2c2nc(C)cc(C(F)(F)F)c2C#N)c1,IC50,second compound 0.0316 µM,> 0.1 µM
same,IC50,second compound 0.1 µM,> 0.1 µM
same,IC50,second compound 0.316 µM,> 0.1 µM
same,IC50,second compound 1 µM,> 0.1 µM
same,IC50,second compound 3.16 µM,> 0.1 µM
same,IC50,second compound 10 µM,> 0.1 µM
same,"viability, T/C","second compound 0.0316 µM, first compound 0.000316 µM",110%
same,"viability, T/C","second compound 0.0316 µM, first compound 0.001 µM",98.7%
same,"viability, T/C","second compound 0.0316 µM, first compound 0.00316 µM",104%
same,"viability, T/C","second compound 0.0316 µM, first compound 0.01 µM",94.5%
same,"viability, T/C",[1],99.4%
same,"viability, T/C",[2],88.5%
same,"viability, T/C","second compound 0.1 µM, first compound 0.000316 µM",109%
same,"viability, T/C","second compound 0.1 µM, first compound 0.001 µM",98.5%
same,"viability, T/C","second compound 0.1 µM, first compound 0.00316 µM",94.7%
same,"viability, T/C","second compound 0.1 µM, first compound 0.01 µM",104%
same,"viability, T/C",[3],97.5%
same,"viability, T/C",[4],88.7%
same,"viability, T/C","second compound 0.316 µM, first compound 0.000316 µM",99.1%
same,"viability, T/C","second compound 0.316 µM, first compound 0.001 µM",95.9%
same,"viability, T/C","second compound 0.316 µM, first compound 0.00316 µM",98.2%
same,"viability, T/C","second compound 0.316 µM, first compound 0.01 µM",91.5%
same,"viability, T/C",[5],101%
same,"viability, T/C",[6],87.3%
same,"viability, T/C","second compound 1 µM, first compound 0.000316 µM",98.2%
same,"viability, T/C","second compound 1 µM, first compound 0.001 µM",93.4%
same,"viability, T/C","second compound 1 µM, first compound 0.00316 µM",97.5%
same,"viability, T/C","second compound 1 µM, first compound 0.01 µM",97.1%
same,"viability, T/C",[7],93.7%
same,"viability, T/C",[8],86.9%
same,"viability, T/C","second compound 3.16 µM, first compound 0.000316 µM",92.4%
same,"viability, T/C","second compound 3.16 µM, first compound 0.001 µM",98.5%
same,"viability, T/C","second compound 3.16 µM, first compound 0.00316 µM",91.7%
same,"viability, T/C","second compound 3.16 µM, first compound 0.01 µM",98.4%
same,"viability, T/C",[9],101%
same,"viability, T/C",[10],81.7%
same,"viability, T/C","second compound 10 µM, first compound 0.000316 µM",85.6%
same,"viability, T/C","second compound 10 µM, first compound 0.001 µM",89.4%
same,"viability, T/C","second compound 10 µM, first compound 0.00316 µM",104%
same,"viability, T/C","second compound 10 µM, first compound 0.01 µM",90%
same,"viability, T/C",[11],87.5%
same,"viability, T/C",[12],77.7%
CNCc1ccc(-c2[nH]c3cc(F)cc4c3c2CCNC4=O)cc1 + Cc1cccc(N(C)C(=O)C2C(O)CCN2c2nc(C)cc(C(F)(F)F)c2C#N)c1,IC50,second compound 0.0316 µM,> 10 µM
same,IC50,second compound 0.1 µM,> 10 µM
same,IC50,second compound 0.316 µM,> 10 µM
same,IC50,second compound 1 µM,> 10 µM
same,IC50,second compound 3.16 µM,> 10 µM
same,IC50,second compound 10 µM,> 10 µM
same,"viability, T/C",[1],102%
same,"viability, T/C",[2],104%
same,"viability, T/C","second compound 0.0316 µM, first compound 0.316 µM",105%
same,"viability, T/C","second compound 0.0316 µM, first compound 1 µM",96.8%
same,"viability, T/C","second compound 0.0316 µM, first compound 3.16 µM",108%
same,"viability, T/C","second compound 0.0316 µM, first compound 10 µM",109%
same,"viability, T/C",[3],111%
same,"viability, T/C",[4],100%
same,"viability, T/C","second compound 0.1 µM, first compound 0.316 µM",95.9%
same,"viability, T/C","second compound 0.1 µM, first compound 1 µM",95.3%
same,"viability, T/C","second compound 0.1 µM, first compound 3.16 µM",105%
same,"viability, T/C","second compound 0.1 µM, first compound 10 µM",108%
same,"viability, T/C",[5],104%
same,"viability, T/C",[6],99.3%
same,"viability, T/C","second compound 0.316 µM, first compound 0.316 µM",104%
same,"viability, T/C","second compound 0.316 µM, first compound 1 µM",103%
same,"viability, T/C","second compound 0.316 µM, first compound 3.16 µM",102%
same,"viability, T/C","second compound 0.316 µM, first compound 10 µM",99.6%
same,"viability, T/C",[7],92.7%
same,"viability, T/C",[8],93.9%
same,"viability, T/C","second compound 1 µM, first compound 0.316 µM",93.6%
same,"viability, T/C","second compound 1 µM, first compound 1 µM",98%
same,"viability, T/C","second compound 1 µM, first compound 3.16 µM",110%
same,"viability, T/C","second compound 1 µM, first compound 10 µM",102%
same,"viability, T/C",[9],99%
same,"viability, T/C",[10],98.1%
same,"viability, T/C","second compound 3.16 µM, first compound 0.316 µM",98.4%
same,"viability, T/C","second compound 3.16 µM, first compound 1 µM",103%
same,"viability, T/C","second compound 3.16 µM, first compound 3.16 µM",108%
same,"viability, T/C","second compound 3.16 µM, first compound 10 µM",104%
same,"viability, T/C",[11],92.3%
same,"viability, T/C",[12],92.1%
same,"viability, T/C","second compound 10 µM, first compound 0.316 µM",88.9%
same,"viability, T/C","second compound 10 µM, first compound 1 µM",93.2%
same,"viability, T/C","second compound 10 µM, first compound 3.16 µM",104%
same,"viability, T/C","second compound 10 µM, first compound 10 µM",104%
